Assay results: patent publication US7335186B2 (priority 1998, dated 2008)

Details: 30 mg per ml solutions

In the case of `CN1CC[C@]23c4c5ccc(O)c4O[C@H]2[C@@H](O)C=C[C@H]3[C@H]1C5.O=S(=O)(O)O` [Morphine sulphate], the “effectiveness of nasal solution” value is reported as “effective”.
